Experiments:
[1] = system: Blumeria graminis f. sp. tritici; experiment: Test F: preventive spray on wheat seedlings, Blumeria graminis f. sp. tritici (wheat powdery mildew), visual disease rating; type: in vivo; conditions: topical, 192 h, 100 = 100% disease control, 0 = no disease control relative to controls
Source text: General protocol for preparing test suspensions for Tests A-H: the test compounds were first dissolved in acetone in an amount equal to 3% of the final volume and then suspended at the desired concentration (in ppm) in acetone and purified water (50/50 mix by volume) containing 250 ppm of the surfactant Trem® 014 (polyhydric alcohol esters). The resulting test suspensions were then used in Tests A-F. Spraying a 40 ppm test suspension to the point of run-off on the test plants was the equivalent of a rate of 160 g/ha. Unless otherwise indicated, the rating values indicate a 40 ppm test suspension was used. The test suspension was sprayed to the point of run-off on wheat seedlings. The following day the seedlings were inoculated with a spore dust of Blumeria graminis f. sp. tritici (also known as Erysiphe graminis f. sp. tritici, the causal agent of wheat powdery mildew) and incubated in a growth chamber at 20° C. for 8 days, after which time visual disease ratings were made. Results for Tests A-F are given in Table A. In the Table, a rating of 100 indicates 100% disease control and a rating of 0 indicates no disease control (relative to the controls). A dash (-) indicates no test results.

[2] = system: Septoria nodorum; experiment: Test C: preventive spray on wheat seedlings, Septoria nodorum (Septoria glume blotch), visual disease rating; type: in vivo; conditions: Parastagonospora nodorum, topical, 264 h, 100 = 100% disease control, 0 = no disease control relative to controls
Source text: (§1) General protocol for preparing test suspensions for Tests A-H: the test compounds were first dissolved in acetone in an amount equal to 3% of the final volume and then suspended at the desired concentration (in ppm) in acetone and purified water (50/50 mix by volume) containing 250 ppm of the surfactant Trem® 014 (polyhydric alcohol esters). The resulting test suspensions were then used in Tests A-F. Spraying a 40 ppm test suspension to the point of run-off on the test plants was the equivalent of a rate of 160 g/ha. Unless otherwise indicated, the rating values indicate a 40 ppm test suspension was used. The test suspension was sprayed to the point of run-off on wheat seedlings. The following day the seedlings were inoculated with a spore suspension of Septoria nodorum (the causal agent of Septoria glume blotch) and incubated in a saturated atmosphere at 20° C. for 48 h, and then moved to a growth chamber at 20° C. for 9 days, after which time visual disease ratings were made. Results for Tests A-F are given in Table A. In the Table, a rating of 100 indicates 100% disease control and a rating of 0 indicates no disease control (relative to the controls). A dash (-) indicates no test results.

[3] = system: Botrytis cinerea; experiment: Test A: preventive spray on tomato seedlings, Botrytis cinerea (tomato Botrytis), visual disease rating; type: in vivo; conditions: 100 = 100% disease control, 0 = no disease control relative to controls
Source text: General protocol for preparing test suspensions for Tests A-H: the test compounds were first dissolved in acetone in an amount equal to 3% of the final volume and then suspended at the desired concentration (in ppm) in acetone and purified water (50/50 mix by volume) containing 250 ppm of the surfactant Trem® 014 (polyhydric alcohol esters). The resulting test suspensions were then used in Tests A-F. Spraying a 40 ppm test suspension to the point of run-off on the test plants was the equivalent of a rate of 160 g/ha. Unless otherwise indicated, the rating values indicate a 40 ppm test suspension was used. The test suspension was sprayed to the point of run-off on tomato seedlings. The following day the seedlings were inoculated with a spore suspension of Botrytis cinerea (the causal agent of tomato Botrytis) and incubated in saturated atmosphere at 20° C. for 48 h, and then moved to a growth chamber at 27° C. for 3 days, after which time visual disease ratings were made. Results for Tests A-F are given in Table A. In the Table, a rating of 100 indicates 100% disease control and a rating of 0 indicates no disease control (relative to the controls). A dash (-) indicates no test results.

[4] = system: Puccinia recondita f. sp. tritici; experiment: Test E2: preventive spray on wheat seedlings, Puccinia recondita f. sp. tritici (wheat leaf rust), visual disease rating; type: in vivo; conditions: topical, 192 h, 100 = 100% disease control, 0 = no disease control relative to controls
Source text: as §1, with “Puccinia recondita f. sp. tritici” for “Septoria nodorum”, “wheat leaf rust)” for “Septoria glume blotch)”, “24” for “48”, “7” for “9”

[5] = system: Septoria tritici; experiment: Test D: preventive spray on wheat seedlings, Septoria tritici (wheat leaf blotch), visual disease rating; type: in vivo; conditions: Zymoseptoria tritici, topical, 504 h, 100 = 100% disease control, 0 = no disease control relative to controls
Source text: General protocol for preparing test suspensions for Tests A-H: the test compounds were first dissolved in acetone in an amount equal to 3% of the final volume and then suspended at the desired concentration (in ppm) in acetone and purified water (50/50 mix by volume) containing 250 ppm of the surfactant Trem® 014 (polyhydric alcohol esters). The resulting test suspensions were then used in Tests A-F. Spraying a 40 ppm test suspension to the point of run-off on the test plants was the equivalent of a rate of 160 g/ha. Unless otherwise indicated, the rating values indicate a 40 ppm test suspension was used. The test suspension was sprayed to the point of run-off on wheat seedlings. The following day the seedlings were inoculated with a spore suspension of Septoria tritici (the causal agent of wheat leaf blotch) and incubated in saturated atmosphere at 24° C. for 48 h, and then moved to a growth chamber at 20° C. for 19 days, after which time visual disease ratings were made. Results for Tests A-F are given in Table A. In the Table, a rating of 100 indicates 100% disease control and a rating of 0 indicates no disease control (relative to the controls). A dash (-) indicates no test results.

Work on `Cc1cc(F)c(Nc2c(-c3ccc(F)cc3Cl)c(C)nn2C)c(F)c1` [Compound 10, 4-(2-chloro-4-fluorophenyl)-N-(2,6-difluoro-4-methylphenyl)-1,3-dimethyl-1H-pyrazol-5-amine] yielded a pest or weed control at 40 µg/mL [1] of 100%, a pest or weed control at 40 µg/mL [2] of 90% and a pest or weed control at 40 µg/mL [3] of 100%. For the same molecule, the melting point was 121 to 123 °C, the pest or weed control at 40 µg/mL [4] was 100% and the pest or weed control at 40 µg/mL [5] was 100%.

Source: patent US9464056B2, “Fungicidal 4-methylanilino pyrazoles” (E. I. DU PONT DE NEMOURS AND COMPANY, priority 2012, dated 2016)
